Results on four compounds are retold here after patent US20110189174A1, “COMPOSITIONS AND METHODS FOR TREATING, REDUCING, AMELIORATING, ALLEVIATING, OR INHIBITING PROGRESSION OF, PATHOGENIC OCULAR NEOVASCULARIZATION” (priority 2010, published 2011).

Data set [1] is described as follows: Intraocular pressure (Tono-pen) in monkeys after intravitreal injection. Type of data set: in vivo, cynomolgus monkeys (Macaca fascicularis). On the procedure: Once the phase Ib study was completed, and it was established that the drug suspension in oil would not interfere with either laser administration, evaluation of CNV or cause adverse effects, phase II was initiated. On days 1, and 15 both eyes of monkeys received 50 μL of Lucentis (0.5 mg/eye), vehicle (0 mg/eye), BOL-303050-X (1.5 mg/eye), BOL-303054-X (1.5 mg/eye) or BOL-303055-X (1.5 mg/eye) (Table 2). Intravitreous injection was performed for each by eye aiming towards mid-vitreous body. Dosing in the right eye was alternated for successive doses (as applicable) at approximately the 11 o'clock and 10 o'clock positions. Dosing in the left eye was alternated for successive doses (as applicable) from approximately the 1 o'clock and 2 o'clock positions.
IOP was done in conjunction with the OE using a Tono-pen on anesthetized monkeys on days 1, 3, 7, 15, and 31 of dosing Phase II and on the day of scheduled sacrifice (day 38).
Grade IV lesions were analyzed using either Fisher's exact probability test (2-Tail) or Chi square test (χ2). For the analysis of delta changes in TOP a two-way ANOVA with repeated measures followed by the contrast procedure was performed on Box-Cox transformed data if needed. Unless indicated otherwise, data are presented as means±SEM unless stated otherwise. P<0.05 was considered statistically significant.

For data set [2], the system named is human retinal endothelial cells (HREC). The data set can be described thus: Testing 7: VEGF-induced HREC proliferation (MTS assay), integrin antagonists and Lucentis alone and in combination. Type of data set: cell-based. Here is the method: HREC were first cultured overnight in a 96-well plate coated with fibronectin. The next day medium containing different agents as shown in Tables 14 and 15 was pre-incubated for 1 hour before being added into appropriate wells. The cells were cultured at 37° C., 5% CO2, and 95% humidity for another 3 days. After that, cell proliferation was estimated by the MTS assay. In the first study we used VEGF 10 ng/mL (about EC80 in study PH08169), Lucentis® 1 ng/mL (about EC25 in study PH09038) and 5 doses of BOL-303055-X. Normal IgG (1 ng/ml) was also added to groups containing no Lucentis®. All groups contained the same amount of 0.1% DMSO. In the second study, all five compounds (BOL-303049-X, BOL-303050-X, BOL-303051-X, BOL-303054-X and BOL-303055-X) were tested at 1 nM with other conditions remaining the same.
A 96-well plate was coated with human fibronectin (10 μg/mL) for 5 hours at 37° C. HREC were washed with HBSS buffer once, tripsinized and re-suspended in 10% FBS CS-C medium at 18,000 cells/mL. Cells (200 μL) were added to the plate and cultured overnight at 37° C., 5% CO2, and 95% humidity. Next day, the cells were serum-starved for 2 hours.
For study I, VEGF at 10 ng/mL, Lucentis® at 1 ng/mL and BOL-303055-X at 0.1, 0.3, 1, 3 and 10 nM were prepared in 1% FBS CS medium as shown in Table 14. Normal IgG (1 ng/mL) were added to groups containing no Lucentis®. All medium solutions were incubated for 1 hour at 37° C. After carefully medium was aspirated, 200 μL of the medium containing different agents were then added into appropriate wells. The cells were cultured for another 3 days. For the study II as shown in the Table 15, five compounds were tested at 1 nM with other conditions remaining the same as study I.
At the end of incubation, the medium was carefully aspirated from cells and 120 μl of MTS working solution was added into all wells including blank wells (without cells). The plates were incubated at 37° C., 5% CO2, and 95% humidity for 1 hour and then read by a plate reader at 490 nm wavelength.
Median optical density (OD) was generated from different groups. Data were expressed as mean±SEM of the OD values. Statistical analysis was performed using three-way ANOVA after Box-Cox transformations, and p<0.05 was considered statistically significant. To evaluate whether the effects of the combinations were either synergistic or additive, net inhibitions were calculated by subtracting the basal levels in the presence of VEGF from the individual treatments (Lucentis® and Integrin blockers) and the combinations. […] Data analysis was performed utilizing the statistical analysis software JMP (SAS Institute, Cary, N.C.).

Data set [3] has the same test system. The data set can be described thus: Testing 6: VEGF-induced HREC proliferation (MTS assay), BOL-303055-X and Avastin alone and in combination. Format: cell-based. The conditions noted are these: for Inhibition of VEGF-induced HREC proliferation, agent alone: Avastin 3-300 ng/ml (significant from 30 ng/ml). On the procedure:
HREC were first cultured overnight in a 96-well plate coated with fibronectin. The next day, cells were serum-starved for 2 hours. The medium containing different agents as shown in Table 12 was pre-incubated for 1 hour before being added into appropriate wells. The cells were further cultured at 37° C., 5% CO2, and 95% humidity for another 3 days. After that, cell proliferation was estimated by the MTS assay—a cell metabolic activity assay (disclosed hereinabove).
A 96-well plate was coated with human fibronectin (10 μg/ml) for 5 h at 37° C., 5% CO2, and 95% humidity. HREC were collected from flasks by EDTA-trypsin treatment and re-suspended in 10% FBS CS-C medium at 18,000 cells/ml. Cells (200 μl/well) were added to the plate and cultured for overnight at 37° C., 5% CO2, and 95% humidity. Next day, medium was aspirated and serum-free medium was added to wells at 200 μl/well for 2 hours.
Normal IgG was also added in such a way that all groups contained the same amount of IgG protein. All medium solutions were incubated for 1 h at 37° C., 5% CO2, and 95% humidity. After carefully aspirating the medium from cells, 200 μl of the medium containing different agents was added into appropriate wells. The cells were further cultured for 3 days.
At the end of incubation, the medium was carefully aspirated from cells and 120 μl of MTS working solution was added into all wells. The plate was incubated at 37° C., 5% CO2, and 95% humidity for 1 hour and then read by a plate reader at 490 nm wavelength.
Median optical density (OD) was generated from different groups. Data were expressed as mean±SEM of the OD values. Statistical analysis was performed using a three-way ANOVA followed by the contrast procedure on log-transformed data, and P<0.05 was considered statistically significant. […] All the data from the individual wells were fitted to a re-parameterized four-parameter logistic equation to obtain IC50 using similar methodology as that previously described and utilizing the statistical analysis software JMP (SAS Institute, Cary, N.C.).

The conditions of data set [4]: rat, in vivo.
Protocol: The anterior segment of the eye was examined using a slit-lamp biomicroscopy for excluding any animals with abnormalities that might interfere with the study. Fundus photography and fluorescein angiography (FA) were performed to document the health of the retina and the ocular circulation using a TRC 50EX fundus camera (Topcon). For FA, 10% sodium fluorescein was injected intravenously (50 mg/kg of body weight) through the tail vein or the vein under the incisor before the procedure.
Immediately after placement of laser photocoagulation, the experimental eyes received an intravitreal injection of either a compound or a vehicle as described in Table 5. Following the disinfection of ocular surface with 5% betadine and 0.9% saline solutions, the injections were performed with aid of a surgical microscope using 0.3 mL syringes with a 31-gauge ½-inch long needle (Ultra-Fine II™ Insulin syringe, BD, Franklin Lakes, N.J.).
Two weeks after photocoagulation, all rats were examined under anesthesia and pupil dilation with slit-lamp biomicroscopy, fundus photography and FA as described in the baseline examination.
The mark [5] stands for this setting: study II, compound 1 nM, Lucentis 1 ng/mL.
Where [6] appears, read: BOL-303055-X 1 nM, VEGF 10 ng/ml.

Regarding `COc1ccc(S(=O)(=O)N[C@@H](CNc2nc(C)nc(N3CCC(c4ccc5c(n4)NCCC5)CC3)c2C)C(=O)O)cc1` [BOL-303050-X], the “Reduction of IOP versus baseline” value in data set [1] (day 38 only, 1.5 mg/eye intravitreal days 1 and 15) stood at 4 mm Hg. Moreover, the “Combination effect with Lucentis on VEGF-induced HREC proliferation (synergistic/additive)” value in data set [2] (setting [5]) was “additive effects”.

Consider `COc1c(NC[C@H](NC(=O)OCc2ccccc2)C(=O)O)ncnc1N1CCC(c2ccc3c(n2)NCCC3)CC1` [BOL-303054-X], for which the “Combination effect with Lucentis on VEGF-induced HREC proliferation (synergistic/additive)” value in data set [2] (setting [5]) is on record as “additive effects”.

`CCc1nc(NC[C@H](NC(=O)OCc2ccccc2)C(=O)O)c(C)c(N2CCC(c3ccc4c(n3)NCCC4)CC2)n1` [BOL-303055-X]: the “IOP change compared with baseline” value in data set [1] (right eyes day 15, left eyes days 3 and 15) was “reduced IOP”. Further, the “Increase in IOP compared to baseline” value in data set [1] (right eyes, day 31, 1.5 mg/eye intravitreal days 1 and 15) is listed as 4 mm Hg. The “HREC proliferation under basal conditions” value in data set [3] (1 nM, no VEGF) is reported as “significantly inhibited”. The “Enhancement of Avastin potency” value in data set [3] (BOL-303055-X 1 nM) is on record as “approximately 3.8 fold”. Besides, the “Inhibition of VEGF-induced HREC proliferation, agent alone” value in data set [3] (setting [6]) is on record as “reduced VEGF-induced proliferation in a statistically significant manner”. In addition, the “Combination effect with Avastin on VEGF-induced HREC proliferation (synergistic/additive)” value in data set [3] (BOL-303055-X 1 nM, Avastin 10 to 100 ng/ml) is recorded as “synergistic effects”. Also, the “HREC proliferation without VEGF” value in data set [2] (basal and Lucentis-treatment conditions, Lucentis 1 ng/mL, BOL-303055-X 0.1-10 nM, other compounds 1 nM) was “reduced HREC proliferation in a statistically significant and dose-dependent manner”. Moreover, in data set [2] (study I, 0.1, 0.3, 1, 3 and 10 nM, Lucentis 1 ng/mL), the “Inhibiting effect on VEGF-induced HREC proliferation in the presence of Lucentis versus without” value is reported as “significantly greater inhibiting effect”. Moreover, the “Inhibition of VEGF-induced HREC proliferation, compound alone” value in data set [2] (study I, 0.1-10 nM, VEGF 10 ng/mL) was “inhibited VEGF-induced HREC proliferation in a dose-dependent manner”. Also, the “Combination effect with Lucentis on VEGF-induced HREC proliferation (synergistic/additive)” value in data set [2] (study I, compound 0.1 nM, Lucentis 1 ng/mL) was “synergistic effects”; in data set [2] (study I, compound 0.3 nM, Lucentis 1 ng/mL), “additive”; in data set [2] (study I, compound 1, 3 and 10 nM, Lucentis 1 ng/mL) it was “additive”; in data set [2] (setting [5]), “additive effects”.

In the case of “bevacizumab [Avastin, reference compound]”, the “Inhibition of VEGF-induced HREC proliferation, agent alone” value in data set [3] (setting [6]) is recorded as “dose-dependent inhibition”. Moreover, the “IC50 ± SE of Avastin plus BOL-303055-X on inhibiting VEGF-induced proliferation of HREC” value in data set [3] (VEGF 10 ng/ml, BOL-303055-X 1 nM, estimated) was 0.016 µg/mL. Further, the “Intraocular inflammation and retinal vascular congestion” value in data set [4] was “no intraocular inflammation and retinal vascular congestion was recorded”.
